Literature values, collected in patent publication US20040176366A1, “Method of preventing or treating atherosclerosis or restenosis” (priority 2002, published 2004).

System: CMV
Conditions: rats, prophylaxis

Nc1nc(O)c2ncn(COC(CO)CO)c2n1 [Ganciclovir]
prevention of atherosclerosis resulting from CMV infection: prevent atherosclerosis resulting from CMV infection of rats
